Values of other authors as cited in paper PMC7887855 (ACS Pharmacology & Translational Science, 2020).

System: Mtb
Conditions: multiple daily IP injections, mice

Structure (SMILES): C=Cc1c2[n-]c(c1C)/C=c1\[n-]/c(c(C)c1C=C)=C\c1[n-]c(c(CCC(=O)O)c1C)C=c1[n-]/c(c(C)c1CCC(=O)O)=C\2.[Sn+4] [SnPPIX, tin protoporphyrin IX]
- effect on mycobacterial load as monotherapy: significantly decrease mycobacterial load
- effect on treatment time in combination with conventional TB antibiotics: reduced treatment time by over one month
